Test results from patent publication US11149046B2, “Antibacterial sideromycins” (Hsiri Therapeutics, Inc., priority 2014, dated 2021).
In brackets after ≈: the same amount, converted by molar mass. Entries after “also recorded” stand apart in the source; their conditions may differ. Where two headings read alike, the source gives them in different places.

Assays:
A. baumannii ATCC 17961 = experiment: MIC determination; format: cell-based, Acinetobacter baumannii
Source text: (§1) Table 3 that was included in the first Example 4 section provides antibacterial data for the first synthetic sideromycins we prepared and studied. The second Example 4 section elaborated and expanded on that data with inclusion of representative antibacterial data in the text and associated pictures of Petri dish assays. MIC (minimum inhibition concentration) is given in μM and AD (agar diffusion zones of inhibition are given in mm from Kirby-Bauer Petri dish growth inhibition studies).

[1] = tested on: Pseudomonas aeruginosa 01 (Pa01); experiment: MIC determination; format: cell-based; settings: read-out: MIC
Source text: as §1

Pa4 = experiment: MIC determination; format: cell-based, Pseudomonas aeruginosa; settings: Pseudomonas aeruginosa
Source text: as §1

P. aeruginosa KW799/wt = experiment: MIC determination; format: cell-based, Pseudomonas aeruginosa
Source text: as §1

[2] = tested on: Pa-Da-1304 CF patient isolate; experiment: MIC determination; format: cell-based, Pseudomonas aeruginosa; settings: for MIC: Pseudomonas aeruginosa; for susceptibility of the clinical isolate (in words): preliminary tests
Source text: (§2) MIC (minimum inhibition concentration) is given in μM and AD (agar diffusion zones of inhibition are given in mm from Kirby-Bauer Petri dish growth inhibition studies).
We obtained a clinical isolate of Pseudomonas from a cystic fibrosis patient.

Pa6 = experiment: MIC determination; format: cell-based, Pseudomonas aeruginosa; settings: Pseudomonas aeruginosa
Source text: as §2

E. coli DC2 = experiment: Agar diffusion (Kirby-Bauer) assay; format: cell-based; settings: Table 5
Source text: as §1

[3] = tested on: Pseudomonas aeruginosa KW799/wt; experiment: Agar diffusion (Kirby-Bauer) assay; format: cell-based; settings: for zones of inhibition (in words): wild type Pseudomonas, FIG. 8, 9, 12
Source text: as §1

E. coli DC0 [4] = experiment: Agar diffusion (Kirby-Bauer) assay; format: cell-based; settings: Table 5
Source text: as §1

[5] = tested on: Pseudomonas aeruginosa KW799/61; format: cell-based; settings: for AD = agar diffusion inhibition zones: Table 5
Source text: as §2

[6] = tested on: Acinetobacter baumannii ATCC 17961; experiment: Agar diffusion (Kirby-Bauer) assay, with and without hydrogel; format: cell-based; settings: for zones of inhibition (in words): Acinetobacter, FIG. 8, 9, 10; for AD = agar diffusion inhibition zones: Table 5, head prints A. baumannii only
Source text: as §1
We investigated whether the sideromycin absorbed in the gel be able to diffuse out of the gel and into the agar to effect antibacterial growth. As a control, the sideromycin alone, without gel, was added in a separate 9 mm well, as usual.
The second question was whether the sideromycin continue to be released and be able to effect bacterial growth inhibition over extended periods. Thus, additional identical agar plates were prepared and stored at 4° C. for 24, 48 and 72 hours to allow diffusion of the sideromycin (control and gel forms) into the agar before allowing the bacteria to grow in an incubator. Then after each time period, the Petri dishes were incubated at 37° C. for 20 hours to promote bacteria growth in the agar. […] The study has been extended to as long as 168 hours (one week) with retention of antibiotic effectiveness.

[7] = tested on: strains of Pseudomonas and Acinetobacter; experiment: Antibacterial activity, general statements; format: cell-based; settings: general statements of the text
Description: Antibiotic activity was determined using agar diffusion assays against representative Gram-negative bacteria, including Pseudomonas aeruginosa (Pa6), and several multidrug resistant forms of Acinetobacter baumannii. Representative results are shown in Table 1 and a corresponding picture of an actual petri dish showing the agar diffusion results (FIG. 4). […].

[8] = tested on: E. coli DC2 (permeability mutant); experiment: MIC determination; format: cell-based; settings: Escherichia coli
Source text: as §1

E. coli DC0 [9] = experiment: MIC determination; format: cell-based; settings: Escherichia coli, DC0; Table 5; read-out: MIC
Source text: as §1

[10] = tested on: P. aeruginosa KW799/61 (permeability mutant); experiment: microbe, parasite or virus in culture; format: cell-based, Pseudomonas aeruginosa; settings: Pseudomonas aeruginosa
Source text: as §2

[11] = Acinetobacter baumannii, ATCC17961, Table 5, head prints A. baumannii only, read-out: MIC
[12] = Pseudomonas aeruginosa, Table 5
[13] = Pseudomonas aeruginosa, KW799/WT, Table 5, read-out: MIC
[14] = Acinetobacter baumannii, ATCC17961, Table 7, read-out: MIC
[15] = Pseudomonas aeruginosa, Table 7

CC(=O)Oc1cccc(C(=O)NCCCCN(CCCNC(=O)c2cccc(OC(C)=O)c2OC(C)=O)C(=O)CCC(=O)N[C@@H](CCCN(O)C(C)=O)C(=O)N[C@@H](C(=O)N[C@@H]2C(=O)N3C(C(=O)O)=C(Cl)CCC23)c2ccccc2)c1OC(C)=O (some centres unmarked) [MG-1-185]
MIC (A. baumannii ATCC 17961; Acinetobacter baumannii, ATCC17961, Table 6, head prints A. baumannii only, read-out: MIC): 0.2 µM (≈ 0.238 µg/mL)
MIC ([1]; Pseudomonas aeruginosa, Table 6): > 50 µM
MIC (Pa4; Table 6): > 50 µM
MIC (P. aeruginosa KW799/wt; Pseudomonas aeruginosa, KW799/WT, Table 6, read-out: MIC): 1.56 µM (≈ 1.86 µg/mL)
MIC ([2]; Table 6): > 50 µM
MIC (Pa6; Table 6, read-out: MIC): > 50 µM

CC(=O)Oc1cccc(C(=O)NCCCCN(CCCNC(=O)c2cccc(OC(C)=O)c2OC(C)=O)C(=O)CCC(=O)N[C@@H](CCCN(O)C(C)=O)C(=O)N[C@@H](C(=O)N[C@@H]2C(=O)N3C2SC(C)(C)[C@@H]3C(=O)O)c2ccccc2)c1OC(C)=O (some centres unmarked) [MG-1-186]
MIC (Pa6; Table 6, read-out: MIC): > 50 µM

O=C(CCC(=O)N(CCCCNC(=O)c1cccc(O)c1O)CCCNC(=O)c1cccc(O)c1O)NCCCCCN(O)C(=O)CCCC(=O)NC(C(=O)NC1C(=O)N2C(C(=O)O)=C(Cl)CSC12)c1ccccc1 (centres unmarked) [MG-1-285]
MIC (A. baumannii ATCC 17961; read-out: MIC): 0.025 µM (≈ 0.027 µg/mL)

CC(=O)Oc1cccc(C(=O)NCCCCN(CC(=O)N[C@H](C(=O)N[C@@H]2C(=O)N3C(C(=O)O)=C(Cl)CC[C@H]23)c2ccccc2)C(=O)c2cccc(OC(C)=O)c2OC(C)=O)c1OC(C)=O [YML-1-45cr]
AD = agar diffusion inhibition zones (E. coli DC2): (AD = 38) mm
AD = agar diffusion inhibition zones ([3]; Table 5): (AD = 18) mm
zones of inhibition (in words) [3]: sizable zone of inhibition; also recorded: impressive zones of inhibition; also recorded: significant activity
AD = agar diffusion inhibition zones (E. coli DC0 [4]): (AD = 31) mm
AD = agar diffusion inhibition zones [5]: (AD = 23) mm
zones of inhibition (in words) ([5]; outer membrane permeable mutant, FIG. 9 center panel): significant activity
zones of inhibition (in words) [6]: zones comparable to or even larger than our first sideromycin, 21; also recorded: impressive zones of inhibition
AD = agar diffusion inhibition zones [6]: (AD = 18) mm

O=C(CN(CCCCNC(=O)c1cccc(O)c1O)C(=O)c1cccc(O)c1O)NC(C(=O)NC1C(=O)N2C(C(=O)O)=C(Cl)CSC12)c1ccccc1 (centres unmarked) [YML-1-109]
MIC (A. baumannii ATCC 17961; Table 7, read-out: MIC): 0.05 µM (≈ 0.0384 µg/mL)
MIC ([1]; Table 7): 1.56 µM (≈ 1.2 µg/mL)
MIC (P. aeruginosa KW799/wt; Table 7, read-out: MIC): 0.05 µM (≈ 0.0384 µg/mL)
antibacterial activity (in words) [7]: comparable to the loracarbef conjugate YML-1-91

CC(C)(C)OC(=O)NCCCCCN(O)C(=O)CCC(=O)N[C@@H](C(=O)N[C@@H]1C(=O)N2C1SC(C)(C)[C@@H]2C(=O)O)c1ccccc1 (some centres unmarked) [YML-I-27]
AD = agar diffusion inhibition zones (E. coli DC2): (AD = 26) mm
AD = agar diffusion inhibition zones (E. coli DC0 [4]): (AD = 0) mm
AD = agar diffusion inhibition zones [5]: (AD = 24) (AD = 24) mm
AD = agar diffusion inhibition zones [6]: (AD = 17) mm

CC(=O)Oc1cccc(C(=O)N(CCCCNC(=O)c2cccc(OC(C)=O)c2OC(C)=O)CC(=O)N[C@H](C(=O)N[C@@H]2C(=O)N3C(C(=O)O)=C(Cl)CC[C@H]23)c2ccccc2)c1O [YML-I-57]
MIC (A. baumannii ATCC 17961; [11]): 0.02 to 0.0625 µM (≈ 0.0175 to 0.0548 µg/mL)
MIC [8]: 0.006 µM (≈ 0.00526 µg/mL)
MIC [1, 12]: 0.78 µM (≈ 0.683 µg/mL)
MIC (E. coli DC0 [9]): 0.006 µM (≈ 0.00526 µg/mL)
MIC [10]: 0.125 µM (≈ 0.11 µg/mL)
MIC (Pa4; Table 5): 12 µM (≈ 10.5 µg/mL)
MIC (P. aeruginosa KW799/wt; [13]): 0.025 µM (≈ 0.0219 µg/mL)
MIC ([2]; Table 5): > 100 µM
MIC (Pa6; Table 5, read-out: MIC): 1.56 µM (≈ 1.37 µg/mL)
antibacterial activity (in words) [7]: comparable to the fully acetylated version, YML-1-45

O=C(CN(CCCCNC(=O)c1cccc(O)c1O)C(=O)c1cccc(O)c1O)N[C@H](C(=O)N[C@@H]1C(=O)N2C(C(=O)O)=C(Cl)CC[C@H]12)c1ccccc1 [YML-I-60]
MIC (A. baumannii ATCC 17961; [11]): 0.03 to 0.06 µM (≈ 0.0225 to 0.045 µg/mL)
MIC (A. baumannii ATCC 17961; [14]): 0.1 µM (≈ 0.075 µg/mL)
MIC [1, 12]: 1.5 µM (≈ 1.13 µg/mL)
MIC (Pa4; Table 5): 12 µM (≈ 9 µg/mL)
MIC (P. aeruginosa KW799/wt; [13]): 0.025 µM (≈ 0.0188 µg/mL)
MIC ([2]; Table 5): > 100 µM
MIC (Pa6; Table 5, read-out: MIC): 6 µM (≈ 4.5 µg/mL)
growth inhibition with hydrogel / multi-day diffusion (in words) ([6]; plates stored at 4° C. for 24, 48 and 72 hours, then 37° C., or gel streaked on inoculated dish): zones of inhibition increased dramatically after each day

CC(=O)Oc1cccc(C(=O)NCCCCN(CC(=O)N[C@@H](C(=O)N[C@@H]2C(=O)N3C2SC(C)(C)[C@@H]3C(=O)O)c2ccccc2)C(=O)c2cccc(O)c2O)c1OC(C)=O (some centres unmarked) [YML-I-62]
MIC (A. baumannii ATCC 17961; [11]): 0.25 µM (≈ 0.208 µg/mL)
MIC (A. baumannii ATCC 17961; [14]): 0.25 µM (≈ 0.208 µg/mL)
MIC [1, 12]: 0.0156 µM (≈ 0.013 µg/mL)
zones of inhibition (in words) [3]: potently active
MIC [10]: 0.0078 µM (≈ 0.0065 µg/mL)
MIC (Pa4; Table 5): 0.0156 µM (≈ 0.013 µg/mL)
MIC (P. aeruginosa KW799/wt; [13]): 0.0156 µM (≈ 0.013 µg/mL)
MIC ([2]; Table 5): 0.78 µM (≈ 0.65 µg/mL)
MIC ([2]; clinical isolate from a cystic fibrosis patient): 0.4 to 0.75 µM (≈ 0.334 to 0.625 µg/mL)
MIC (Pa6; beta-lactamase producer strain, read-out: MIC): > 100 µM
MIC (Pa6; in the presence of potassium clavulanate, read-out: MIC with added beta-lactamase inhibitor): 0.0625 µM

CC1(C)S[C@@H]2[C@H](NC(=O)[C@H](N)c3ccc(O)cc3)C(=O)N2[C@H]1C(=O)O [amoxicillin, reference compound]
susceptibility of the clinical isolate (in words) [2]: resistant

CC1(C)S[C@@H]2[C@H](NC(=O)[C@H](N)c3ccccc3)C(=O)N2[C@H]1C(=O)O [ampicillin, reference compound]
MIC (A. baumannii ATCC 17961; [11]): > 200 µM
MIC (A. baumannii ATCC 17961; [14]): > 200 µM
MIC (A. baumannii ATCC 17961; Acinetobacter baumannii, ATCC17961, iron deficient media, read-out: MIC in Fe(−)MHII Media): 250 µM (≈ 87.4 µg/mL)
MIC (A. baumannii ATCC 17961; Acinetobacter baumannii, ATCC17961, text, read-out: MIC): > 250 µM
MIC [1, 15]: > 200 µM
MIC [1, 12]: > 200 µM
zones of inhibition (in words) [3]: inactive
MIC (Pa4; Table 5): > 200 µM
MIC (P. aeruginosa KW799/wt; [13]): 200 µM (≈ 69.9 µg/mL)
MIC (P. aeruginosa KW799/wt; Pseudomonas aeruginosa, KW799/WT, iron deficient media, read-out: MIC in Fe(−)MHII Media): 250 µM (≈ 87.4 µg/mL)
MIC ([2]; Table 5): > 200 µM
susceptibility of the clinical isolate (in words) [2]: resistant
MIC (Pa6; Table 5, read-out: MIC): > 200 µM
zones of inhibition (in words) [6]: inactive

N[C@@H](C(=O)N[C@@H]1C(=O)N2C(C(=O)O)=C(Cl)CS[C@H]12)c1ccccc1 [cefaclor, reference compound]
MIC (A. baumannii ATCC 17961; [14]): > 50 µM
MIC [1, 15]: > 50 µM
MIC (P. aeruginosa KW799/wt; Pseudomonas aeruginosa, KW799/WT, Table 7, read-out: MIC): > 50 µM
